Data reported in patent US20230373934A1, “ANDROGEN RECEPTOR MODULATORS AND METHODS FOR THEIR USE” (ESSA Pharma, Inc., priority 2022, published 2023).

Columns and labels:
androgen receptor (AR) = target: T1, androgen receptor (AR) (Homo sapiens, UniProt P10275, T878A); test: Androgen-induced PSA-luciferase assay, Luciferase Assay A (LNCaP transiently transfected with PSA (6.1 kb)-luciferase reporter); type: cell-based; conditions: LNCaP cells, 1 h pretreatment, R1881 (1 nM) 24 h, read-out: PSA-Luc IC50 Range
T1 construct: endogenous in cells; host or cells: LNCaP
T1 sequence (P10275 1-920 T878A): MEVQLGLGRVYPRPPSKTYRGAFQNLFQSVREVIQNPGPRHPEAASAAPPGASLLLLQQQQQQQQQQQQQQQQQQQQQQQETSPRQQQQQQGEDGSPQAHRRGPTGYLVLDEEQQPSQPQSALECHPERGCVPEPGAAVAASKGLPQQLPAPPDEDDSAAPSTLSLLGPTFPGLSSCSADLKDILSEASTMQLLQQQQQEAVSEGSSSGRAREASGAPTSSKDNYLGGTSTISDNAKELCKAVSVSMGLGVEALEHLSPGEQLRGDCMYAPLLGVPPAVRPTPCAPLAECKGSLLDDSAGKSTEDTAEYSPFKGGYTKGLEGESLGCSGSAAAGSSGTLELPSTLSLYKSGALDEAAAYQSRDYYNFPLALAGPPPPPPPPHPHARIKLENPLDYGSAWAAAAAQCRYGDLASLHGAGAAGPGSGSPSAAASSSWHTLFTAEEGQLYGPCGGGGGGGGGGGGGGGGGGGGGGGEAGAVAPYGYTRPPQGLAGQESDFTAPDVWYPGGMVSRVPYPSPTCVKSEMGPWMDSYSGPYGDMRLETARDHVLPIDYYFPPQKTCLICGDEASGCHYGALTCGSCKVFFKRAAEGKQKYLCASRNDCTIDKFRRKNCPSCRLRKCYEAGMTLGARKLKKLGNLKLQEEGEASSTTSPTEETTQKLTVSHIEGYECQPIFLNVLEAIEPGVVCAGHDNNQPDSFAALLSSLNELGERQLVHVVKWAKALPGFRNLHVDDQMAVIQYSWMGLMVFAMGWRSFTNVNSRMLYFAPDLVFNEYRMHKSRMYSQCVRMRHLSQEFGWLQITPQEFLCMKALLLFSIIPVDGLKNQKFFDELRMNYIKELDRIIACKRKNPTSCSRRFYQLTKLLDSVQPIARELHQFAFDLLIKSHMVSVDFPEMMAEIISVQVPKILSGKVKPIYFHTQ
How it was run: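 LNCaP cells transfected 24 h with PSA (6.1 kb)-luciferase reporter, pretreated 1 h with compound, then stimulated 24 h with R1881 (1 nM). Firefly luminescence in lysates normalized to protein content; IC50 from activity relative to R1881-induced vehicle control.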

[1] = Microsomal stability assay, liver microsome half-life (human); type: in vitro ADME; conditions: pH 7.4; human liver microsomes 0.5 mg/mL + NADPH, 1 μM compound, 37° C; read-out: Liver microsome + NADPH T½ (min) Human
Excerpt: (§1) Microsomal Stability Assay: Microsomal stability assay is a widely used in vitro model to characterize the metabolic conversion by phase I enzymes, such as cytochrome P450 (CYP) enzymes. Since metabolism is known to be highly variable in different species, microsomal stability assay is commonly run in multiple species. Metabolic stability of testing compound can be evaluated using human, rat, mouse, or other animal liver or intestine microsomes to predict intrinsic clearance.
(§2) The assay was carried out in 96-well microtiter plates at 37° C. Reaction mixtures (25 μL) contained a final concentration of 1 μM test compound, 0.5 mg/mL liver microsomes protein, and 1 mM NADPH and/or 1 mM UDPGA (with alamethicin) in 100 mM potassium phosphate, pH 7.4 buffer with 3 mM MgCl2. The incubation was done with N=1, but duplicate incubation at each time point can be prepared if necessary. At each of the time points (for example, 0, 15, 30, and 60 minutes), 150 μL of quench solution (100% acetonitrile with 0.1% formic acid) with internal standard was transferred to each well. Besides the zero minute controls, mixtures containing the same components except the NADPH can also be prepared as the negative control. Verapamil was included as a positive control to verify assay performance. Plates were sealed, vortexed, and centrifuged at 4° C. for 15 minutes at 4000 rpm. The supernatant is transferred to fresh plates for LC/MS/MS analysis.
(§3) Summarized conditions: [Compound]=1 μM, [LM]=0.5 mg/mL, [NADPH]=1 mM and/or [UDPGA]=1 mM, Buffer=100 mM Potassium Phosphate, pH 7.4 with 3 mM MgCl2, Time=0, 15, 30, and 60 min, and Temperature=37° C.
(§4) All samples were analyzed on LC/MS/MS using an AB Sciex API 4000 instrument, coupled to a Shimadzu LC-20AD LC Pump system. Analytical samples were separated using a Waters Atlantis T3 dC18 reverse phase HPLC column (20 mm×2.1 mm) at a flow rate of 0.5 mL/min. The mobile phase consisted of 0.1% formic acid in water (solvent A) and 0.1% formic acid in 100% acetonitrile (solvent B).
(§5) The extent of metabolism is calculated as the disappearance of the test compound, compared to the 0-min time incubation. Initial rates are calculated for the compound concentration and used to determine half-life (t1/2).

[2] = Microsomal stability assay, liver microsome half-life (rat); type: in vitro ADME; conditions: pH 7.4; rat liver microsomes 0.5 mg/mL + NADPH, 1 μM compound, 37° C; read-out: Liver microsome + NADPH T½ (min) Rat
Excerpt: as §1, §2, §3, §4, §5

[3] = Microsomal stability assay, liver microsome half-life (mouse); type: in vitro ADME; conditions: pH 7.4; mouse liver microsomes 0.5 mg/mL + NADPH, 1 μM compound, 37° C; read-out: Liver microsome + NADPH T½ (min) Mouse
Excerpt: as §1, §2, §3, §4, §5

[4] = Microsomal stability assay, liver microsome half-life (dog); type: in vitro ADME; conditions: pH 7.4; dog liver microsomes 0.5 mg/mL + NADPH, 1 μM compound, 37° C; read-out: Liver microsome + NADPH T½ (min) Dog
Excerpt: as §1, §2, §3, §4, §5

[5] = Microsomal stability assay, liver microsome half-life (monkey); type: in vitro ADME; conditions: pH 7.4; monkey liver microsomes 0.5 mg/mL + NADPH, 1 μM compound, 37° C; read-out: Liver microsome + NADPH T½ (min) Monkey
Excerpt: as §1, §2, §3, §4, §5

SMILES	IC50 (androgen receptor (AR)) [nM]	half-life at 1 μM [1] [min]	half-life at 1 μM [2] [min]	half-life at 1 μM [3] [min]	half-life at 1 μM [4] [min]	half-life at 1 μM [5] [min]
CS(=O)(=O)Nc1cnc2cc(-c3ccc(N(c4cc(Cl)c(OCCCl)c(C#N)c4)C4CC4)cc3)ccc2n1 [Compound A80, N-(6-(4-((3-chloro-4-(2-chloroethoxy)-5-cyanophenyl)(cyclopropyl)amino)phenyl)quinoxalin-2-yl)methanesulfonamide]	< 500	> 120	> 120	96	> 120	> 120
CS(=O)(=O)N[C@H]1C[C@H](n2cc(-c3ccc(N(CC(F)(F)F)c4cc(Cl)c(OCCCl)c(C#N)c4)cc3)cn2)C1 [Compound A84]	500 to 2000	101	> 120	> 120	> 120	100
CC(C)(c1ccc(OC2CC3(C2)CN(S(C)(=O)=O)C3)cc1)c1cc(Cl)c(OCCCl)c(C#N)c1 [Compound A72]	500 to 2000	> 120	> 120	> 120	> 120	> 120
CC(C)(c1ccc(-c2cnc(N3CC(NS(C)(=O)=O)C3)cn2)cc1)c1cc(Cl)c(OCCCl)c(C#N)c1 [Compound A37]	< 500	> 120	> 120	> 120	> 120	32
CS(=O)(=O)Nc1cnc2cc(-c3ccc(Oc4cc(Cl)c(OCCCl)c(C#N)c4)cc3)ccc2n1 [Compound A16, N-(6-(4-(3-chloro-4-(2-chloroethoxy)-5-cyanophenoxy)phenyl)quinoxalin-2-yl)methanesulfonamide]	500 to 2000	> 120	> 120	> 120	> 120	> 120
COc1c(Cl)cc(C(C)(C)c2ccc(OCc3ccnc(NS(C)(=O)=O)n3)cc2)cc1C#N [Compound A17, N-(4-((4-(2-(3-chloro-5-cyano-4-methoxyphenyl)propan-2-yl)phenoxy)methyl)pyrimidin-2-yl)methanesulfonamide]	500 to 2000	> 120	> 120	> 120	> 120	> 120
CC(C)(C)N(c1ccc(-c2ccc3nc(NS(C)(=O)=O)cnc3c2)cc1)c1cc(Cl)c(OCCCl)c(C#N)c1 [Compound A28]	500 to 2000	78	> 120	> 120	> 120	> 120
CS(=O)(=O)Nc1ccc2cc(-c3ccc(Oc4cc(Cl)c(OCCCl)c(C#N)c4)cc3)cnc2n1 [Compound A24]	500 to 2000	> 120	> 120	> 120	78	> 120
CC(C)(c1ccc(-c2cnn([C@H]3C[C@H](NS(C)(=O)=O)C3)c2)cc1)c1cc(Cl)c(OCCCl)c(C#N)c1 [Compound A44, N-((1r,3r)-3-(4-(4-(2-(3-chloro-4-(2-chloroethoxy)-5-cyanophenyl)propan-2-yl)phenyl)-1H-pyrazol-1-yl)cyclobutyl)methanesulfonamide]	< 500	> 120	112	> 120	> 120	117
CS(=O)(=O)Nc1cnc2cc(-c3ccc(Oc4cc(Cl)c(OCC(F)(F)F)c(C#N)c4)cc3)ccc2n1 [Compound A98]	500 to 2000	> 120	> 120	> 120	> 120	> 120
